Test results taken from patent US4552879A, “Benzoheterocyclic compounds and pharmaceutical composition thereof” (Otsuka Pharmaceutical Co., Ltd., priority 1980, dated 1985).
≈ marks a conversion by molar mass, not a printed value. Like-named read-outs stand apart in the source and are kept apart here.

Experiments:
Experiment in all cases: Minimum inhibitory concentration, serial dilution method on agar plate
Format in all cases: cell-based
[1] = system: Pseudomonas aeruginosa E-2; conditions: for MIC: Pseudomonas aeruginosa
[2] = system: Serratia marcescens IFO 12648
[3] = system: Proteus rettgeri NIH 96; conditions: Providencia rettgeri
[4] = system: Pseudomonas aeruginosa ATCC 10145; conditions: for MIC: Pseudomonas aeruginosa
[5] = system: Escherichia Coli NIHJ JC-2 (IFO 12734)
[6] = system: Staphylococcus aureus FDA 209 P; conditions: for MIC: Staphylococcus aureus
[7] = system: Pseudomonas putida 12996
[8] = system: Streptococcus pyogenes IID S-23; conditions: for MIC: Streptococcus pyogenes
[9] = system: Shigella sonnei EW 33
Experimental: The antimicrobial activity of the following test compounds on various test organisms listed below was determined by the serial dilution method on agar plate (Heart Infusion agar produced by Difco Co.) (see CHEMOTHERAPY 22, pp. 1126-1128 (1974)), and the minimum inhibitory concentrations (mcg/ml) obtained are shown in Tables 1, 2 and 3 below.
A sample of each test organism was prepared so that the population of the organism was 1×10^8 cells/ml (O.D. 660 mμ=0.07 to 0.16) and 1×10^6 cells/ml (which was obtained by diluting 100 fold the above 1×10^8 cells/ml preparation).

[10] = system: Salmonella typhi 0-901 (NCTC 8393); conditions: Salmonella enterica
[11] = system: Klebsiella pneumoniae
[12] = system: Pseudomonas aeruginosa NCTC 10490
[13] = E2, 1×10^6 cells/ml, read-out: Minimum Inhibitory Concentration
[14] = E2, 1×10^8 cells/ml, read-out: Minimum Inhibitory Concentration
[15] = IFO12648, 1×10^6 cells/ml, read-out: Minimum Inhibitory Concentration
[16] = IFO12648, 1×10^8 cells/ml, read-out: Minimum Inhibitory Concentration
[17] = NIH96, 1×10^8 cells/ml, read-out: Minimum Inhibitory Concentration
[18] = NIH96, read-out: Minimum Inhibitory Concentration, 1×10^6 cells/ml
[19] = ATCC10145, 1×10^6 cells/ml, read-out: Minimum Inhibitory Concentration
[20] = ATCC10145, 1×10^8 cells/ml, read-out: Minimum Inhibitory Concentration
[21] = read-out: Minimum Inhibitory Concentration, 1×10^6 cells/ml
[22] = read-out: Minimum Inhibitory Concentration, 1×10^8 cells/ml
[23] = FDA209, 1×10^6 cells/ml, read-out: Minimum Inhibitory Concentration
[24] = FDA209, 1×10^8 cells/ml, read-out: Minimum Inhibitory Concentration
[25] = Pseudomonas putida, 12996, 1×10^6 cells/ml, read-out: Minimum Inhibitory Concentration
[26] = Pseudomonas putida, 12996, 1×10^8 cells/ml, read-out: Minimum Inhibitory Concentration
[27] = IIDS23, 1×10^6 cells/ml, read-out: Minimum Inhibitory Concentration
[28] = IIDS23, 1×10^8 cells/ml, read-out: Minimum Inhibitory Concentration
[29] = NIH96, 1×10^6 cells/ml, read-out: Minimum Inhibitory Concentration
[30] = 1×10^6 cells/ml, read-out: Minimum Inhibitory Concentration
[31] = 1×10^8 cells/ml, read-out: Minimum Inhibitory Concentration
[32] = NIH96, read-out: Minimum Inhibitory Concentration, 1×10^8 cells/ml

Work on `CC1CCc2c(N3CCC(N(C)C)CC3)c(F)cc3c(=O)c(C(=O)O)cn1c23` (stereo not shown) [Compound 5, 9-Fluoro-8-(4-dimethylamino-1-piperidyl)-5-methyl-6,7-dihydro-1-oxo-1H,5H-benzo[ij]quinolizine-2-carboxylic acid] yielded an MIC [1, 13] of 6.25 µg/mL (≈ 16.1 µM), an MIC [1, 14] of 6.25 µg/mL (≈ 16.1 µM) and an MIC [2, 15] of 0.78 µg/mL (≈ 2.01 µM). For the same compound, the MIC [2, 16] was 1.56 µg/mL (≈ 4.03 µM), the MIC [3, 17] was 0.39 µg/mL (≈ 1.01 µM) and the MIC [3, 18] was 0.2 µg/mL (≈ 0.516 µM). The MIC [4, 19] was 3.13 µg/mL (≈ 8.08 µM), the MIC [4, 20] was 6.25 µg/mL (≈ 16.1 µM) and the MIC [5, 21] was 0.2 µg/mL (≈ 0.516 µM). For the same compound, the MIC [5, 22] was 0.2 µg/mL (≈ 0.516 µM), the MIC [6, 23] was 0.05 µg/mL (≈ 0.129 µM) and the MIC [6, 24] was 0.05 µg/mL (≈ 0.129 µM). For the same compound, the MIC [7, 25] was 6.25 µg/mL (≈ 16.1 µM), the MIC [7, 26] was 6.25 µg/mL (≈ 16.1 µM) and the MIC [8, 27] was 0.39 µg/mL (≈ 1.01 µM). It also gave an MIC [8, 28] of 0.78 µg/mL (≈ 2.01 µM), an MIC ([9]; EW33, 1×10^6 cells/ml) of 0.2 µg/mL (≈ 0.516 µM) and an MIC ([9]; EW33, 1×10^8 cells/ml) of 0.2 µg/mL (≈ 0.516 µM). The MIC [10, 21] was 0.2 µg/mL (≈ 0.516 µM), the MIC [10, 22] was 0.2 µg/mL (≈ 0.516 µM) and the MIC [11, 21] was 0.1 µg/mL (≈ 0.258 µM). For the same compound, the MIC [11, 22] was 0.2 µg/mL (≈ 0.516 µM).
Compound `CC1Cc2c(N3CCCC3)c(F)cc3c(=O)c(C(=O)O)cn1c23` (stereo not shown) [Compound 6, 9-(1-Pyrrolidinyl)-8-fluoro-2-methyl-1,2-dihydro-6-oxo-pyrrolo[3,2,1-ij]quinoline-5-carboxylic acid] has an MIC [1, 13] of 1.56 µg/mL (≈ 4.93 µM), an MIC [1, 14] of 1.56 µg/mL (≈ 4.93 µM) and an MIC [2, 15] of 0.39 µg/mL (≈ 1.23 µM). The MIC [2, 16] was 0.78 µg/mL (≈ 2.47 µM), the MIC [3, 29] was 0.05 µg/mL (≈ 0.158 µM) and the MIC [3, 17] was 0.1 µg/mL (≈ 0.316 µM). The MIC [4, 19] was 1.56 µg/mL (≈ 4.93 µM), the MIC [4, 20] was 1.56 µg/mL (≈ 4.93 µM) and the MIC [5, 30] was 0.2 µg/mL (≈ 0.632 µM). It also gave an MIC [5, 31] of 0.39 µg/mL (≈ 1.23 µM), an MIC [6, 23] of 0.024 µg/mL (≈ 0.0759 µM) and an MIC [6, 24] of 0.024 µg/mL (≈ 0.0759 µM). For the same compound, the MIC [8, 27] was 0.78 µg/mL (≈ 2.47 µM), the MIC [8, 28] was 0.78 µg/mL (≈ 2.47 µM) and the MIC ([9]; EW33, 1×10^6 cells/ml) was 0.024 µg/mL (≈ 0.0759 µM). It also gave an MIC ([9]; EW33, 1×10^8 cells/ml) of 0.05 µg/mL (≈ 0.158 µM), an MIC [10, 21] of 0.1 µg/mL (≈ 0.316 µM) and an MIC [10, 22] of 0.1 µg/mL (≈ 0.316 µM). For the same compound, the “Minimum Inhibitory Concentration” value ([12]; 1×10^6 cells/ml) was 1.56 µg/mL, the MIC ([12]; Pseudomonas aeruginosa, NCTC10490, 1×10^8 cells/ml) was 1.56 µg/mL (≈ 4.93 µM) and the MIC [11, 30] was 0.2 µg/mL (≈ 0.632 µM). The MIC [11, 31] was 0.2 µg/mL (≈ 0.632 µM).
For `CCn1cc(C(=O)O)c(=O)c2ccc(C)nc21` [Compound 9, 1-Ethyl-1,4-dihydro-7-methyl-4-oxo-1,8-naphthyridine-3-carboxylic acid, reference compound], the “Minimum Inhibitory Concentration” value ([1]; 1×10^6 cells/ml) was > 100 µg/mL, the MIC ([1]; E2, read-out: Minimum Inhibitory Concentration) was > 100 µg/mL and the MIC ([2]; IFO12648, read-out: Minimum Inhibitory Concentration, 1×10^6 cells/ml) was 3.13 µg/mL (≈ 13.5 µM). It also gave an MIC ([2]; IFO12648, read-out: Minimum Inhibitory Concentration, 1×10^8 cells/ml) of 3.13 µg/mL (≈ 13.5 µM), an MIC [3, 18] of 1.56 µg/mL (≈ 6.72 µM) and an MIC [3, 32] of 1.56 µg/mL (≈ 6.72 µM). For the same compound, the “Minimum Inhibitory Concentration” value ([4]; 1×10^6 cells/ml) was > 100 µg/mL, the MIC ([4]; ATCC10145, read-out: Minimum Inhibitory Concentration) was > 100 µg/mL and the MIC [5, 21] was 3.13 µg/mL (≈ 13.5 µM). The MIC [5, 22] was 3.13 µg/mL (≈ 13.5 µM), the “Minimum Inhibitory Concentration” value ([6]; 1×10^6 cells/ml) was 50 µg/mL and the MIC ([6]; FDA209, read-out: Minimum Inhibitory Concentration) was 50 µg/mL (≈ 215 µM). For the same compound, the “Minimum Inhibitory Concentration” value ([7]; 1×10^6 cells/ml) was > 100 µg/mL, the MIC ([7]; Pseudomonas putida, 12996, read-out: Minimum Inhibitory Concentration) was > 100 µg/mL and the “Minimum Inhibitory Concentration” value ([8]; 1×10^6 cells/ml) was > 100 µg/mL. For the same compound, the MIC ([8]; IIDS23, read-out: Minimum Inhibitory Concentration) was > 100 µg/mL, the MIC ([9]; EW33, 1×10^6 cells/ml) was 3.13 µg/mL (≈ 13.5 µM) and the MIC ([9]; EW33, 1×10^8 cells/ml) was 3.13 µg/mL (≈ 13.5 µM). It also gave an MIC [10, 21] of 3.13 µg/mL (≈ 13.5 µM), an MIC [10, 22] of 3.13 µg/mL (≈ 13.5 µM) and an MIC [11, 21] of 1.56 µg/mL (≈ 6.72 µM). It also gave an MIC [11, 22] of 1.56 µg/mL (≈ 6.72 µM).
With `CC1CCc2c(N3CCOCC3)c(F)cc3c(=O)c(C(=O)O)cn1c23` (stereo not shown) [Compound 2, 9-Fluoro-8-morpholino-5-methyl-6,7-dihydro-1-oxo-1H,5H-benzo[ij]quinolizine-2-carboxylic acid] the MIC [1, 13] was 3.13 µg/mL (≈ 9.04 µM), the MIC [1, 14] was 6.25 µg/mL (≈ 18 µM) and the MIC [2, 15] was 0.39 µg/mL (≈ 1.13 µM). For the same compound, the MIC [2, 16] was 0.78 µg/mL (≈ 2.25 µM), the MIC [3, 29] was 0.05 µg/mL (≈ 0.144 µM) and the MIC [3, 32] was 0.1 µg/mL (≈ 0.289 µM). For the same compound, the MIC [4, 19] was 3.13 µg/mL (≈ 9.04 µM), the MIC [4, 20] was 3.13 µg/mL (≈ 9.04 µM) and the MIC [5, 21] was 0.1 µg/mL (≈ 0.289 µM). It also gave an MIC [5, 22] of 0.2 µg/mL (≈ 0.577 µM), an MIC [6, 23] of 0.025 µg/mL (≈ 0.0722 µM) and an MIC [6, 24] of 0.05 µg/mL (≈ 0.144 µM). The MIC [7, 25] was 3.13 µg/mL (≈ 9.04 µM), the MIC [7, 26] was 6.25 µg/mL (≈ 18 µM) and the MIC [8, 27] was 0.78 µg/mL (≈ 2.25 µM). The MIC [8, 28] was 0.78 µg/mL (≈ 2.25 µM), the MIC ([9]; EW33, 1×10^6 cells/ml) was 0.1 µg/mL (≈ 0.289 µM) and the MIC ([9]; EW33, 1×10^8 cells/ml) was 0.1 µg/mL (≈ 0.289 µM). For the same compound, the MIC [10, 21] was 0.05 µg/mL (≈ 0.144 µM), the MIC [10, 22] was 0.1 µg/mL (≈ 0.289 µM) and the MIC [11, 21] was 0.2 µg/mL (≈ 0.577 µM). The MIC [11, 22] was 0.2 µg/mL (≈ 0.577 µM).
